Consider one sequence from patent US7629317B2, “Control of growth and repair of gastro-intestinal tissues by gastrokines and inhibitors” (The University of Chicago, priority 2001, dated 2009).

One test deals with HAE cells. The test can be described thus: Wound restitution (migration) of scrape-wounded HAE cell monolayers. The format is cell-based, human. As to the method:
To measure growth (left panel), HAE cells were plated in 60-mm dishes. Peptide 77-97 (8 μg/ml), or EGF (50 ng/ml), or both were added to the medium and the number of cells counted 4 days later. […] Values are means±SE for 3 cultures. To measure migration (right panel), cells were grown in 60-mm dishes to prepare a confluent monolayer. The medium was aspirated and replaced with fresh medium containing 0.01% calf serum (CS). The monolayer was mechanically wounded by scraping with a razor blade. Detached cells were removed by aspirating medium, and rinsing the remaining cells twice with fresh medium containing 0.01% CS. Fresh medium (5 ml) containing CS (0.01%) and insulin (100 U/L) was added to wounded cultures. Either peptide 77-97 (8 μg/ml), EGF (50 ng/ml), or both were added to duplicate cultures. Migration was assessed at 24, 48 and 72 hr after wounding by measuring the distance (in mm) that cells had migrated from the wound edge using a microscope eyepiece reticle (10-mm long; 0.1-mm markings). Migrating cells at 12 randomly chosen sites along a 0.25-mm stretch of the wound edge were measured at 40-fold magnification. Migration at 2 different sites was measured for each of 2 separate wounds made in each culture. Values are the mean distance cells moved into the denuded area from the edge of 4 different wounds in 2 cultures±SE.
Confluent monolayer cultures were mechanically wounded by scraping with a razor blade, and the distance that cells migrated from the wound edge was measured using a microscope eyepiece reticle.

Test [1] concerns occludin, ZO-1, ZO-2, claudin-5, E-cadherin, JAM. The test can be described thus: Accumulation of tight and adherens junction proteins in C2 cells (immunoblot of insoluble fraction, confocal microscopy). The format is cell-based, human. As to the method:
To find out how the peptide exerts its cytoprotective effect, C2 cell monolayers were treated with AMP peptide, and oxidant injury was induced with monochloramine 18 hours later. Changes in the levels of specific tight junction (TJ) proteins were checked. Cells were lysed, and proteins of the insoluble/particulate fraction were studied by immunoblotting. […] This observation represents the first evidence that AMP peptide enhances accumulation of specific TJ proteins in colonic epithelial cells. […] To carry out this experiment, C2 cells were exposed to AMP peptide for different periods of time, the NP-40-insoluble fraction was obtained, Western blots were prepared, and the amount of each immunoreactive protein was quantified. A 65% increase in immunoreactivity of each protein compared to control was detected for occludin after 2 hr, and for ZO-1 at 8 hr. Hsc73, which is constitutively expressed in these cells, was not altered by exposure to AMP peptide for up to 18 hr.
Confluent monolayers of C2 cells were treated with AMP peptide or vehicle for 8 hr. Cells were then collected, proteins in the NP-40-insoluble fraction were separated by SDS-PAGE, immunoblots were prepared, and the relative amounts of immunoreactive proteins were compared by densitometric analysis. […] These changes appear relatively specific for occludin, ZO-1, ZO-2, claudin-5, E-cadherin, and JAM because they were not observed for several other proteins localized in the TJ (claudin-1, claudin-2), adherens junction (β-catenin), plasma membrane (Na-K-2Cl cotransporter, α or β subunit of Na-K-ATPase), or cytosol (Rho A, hsc73).
To better understand the mechanism(s) by which AMP peptide enhances accumulation of TJ-associated proteins, experiments were performed to determine whether the peptide exerted its effect at the apical or basolateral surface of C2 cells. Monolayers of C2 cells were grown on Transwell filters, AMP peptide (8:g/ml) was added to the apical or basolateral compartment of the Transwell, and cells were harvested 8 hr later. The NP-40-insoluble fraction was obtained, its proteins separated, and immunoblots were prepared.
(In general: A western blot detects proteins with antibodies after separation by electrophoresis.)

The next test deals with IEC-6 cells. Description: [3H]thymidine incorporation into DNA in IEC-6 cells. The format is cell-based, rat. From the text:
Growth stimulation by peptide 77-97 was additive with that of EGF. […] HAE cells were used to test whether AMP-18 can exert an effect on epithelial cells that exist in the local environment of its synthesis. These cells, provided by Dr. Duane Smoot, Howard University College of Medicine, are not completely immortalized and therefore have limited passage number. Growth stimulation of HAE cells by peptide 77-97 was apparently additive with that of EGF (FIG. 16, left panel). Not only does the AMP peptide stimulate growth but it also acted as a motogen, resulting in more rapid migration (restitution) of cells into scrape wounds made in confluent cultures. […] Near-maximal growth stimulation was detected at an AMP peptide concentration of 0.5 μg/ml (0.23 μM) (FIG. 15, center panel), a much lower value than the concentration needed for trefoil peptides (1 μg/μl) (˜150 μM) or the α-defensin, cryptdin 3 ([…]) (˜140 μM) to exert their effects in culture. […]
Non-transformed monkey kidney epithelial cell line BSC-1 and other epithelial cell lines were used to assess effects on growth. […] AMP-18 preparations were added to the culture medium and 4 days later the cell monolayer was rinsed, detached with trypsin, and the cells were counted using a hemocytometer. […]
(Incorporation of labelled thymidine or its analogues reports DNA synthesis.)

With “LDALVKEKKLQGKGPGGPPPK [97–117, peptide 77-97 of the mature protein, same as 97-117 of the human precursor]”, the “migration from the wound edge compared with vehicle” value in the test on HAE cells (peptide 8 μg/ml, EGF 50 ng/ml, 24-72 hr) is recorded as “migrated further”. For the same sequence, the “migration, peptide and EGF acting together” value in the test on HAE cells (peptide 77-97 8 μg/ml + EGF 50 ng/ml) is on record as “markedly enhanced migration”. For the same sequence, the “changes in claudin-1, claudin-2, β-catenin, Na-K-2Cl cotransporter, Na-K-ATPase subunits, Rho A, hsc73” value in test [1] is recorded as “not observed”. For the same sequence, in test [1] (48 and 72 hr vs 0 hr), the “increase in accumulation of junctional adhesion molecule (JAM)” value was about 50%. In test [1] (8 hr), the “increased accumulation of E-cadherin” value was 2 fold. Also, the “increased accumulation of occludin, ZO-1, ZO-2 and claudin-5” value in test [1] (8 hr, densitometric analysis) was 3- to 6 fold. In test [1] (8 hr, peptides 8 μg/ml, EGF 50 ng/ml), the “accumulation of occludin and ZO-1 (specificity)” value was “enhanced accumulation”. Also, in test [1] (after oxidant injury), the “ZO-1 and occludin levels in the insoluble fraction versus vehicle” value is given as “two-fold”. Also, the “accumulation of occludin and claudin-5, basolateral exposure” value in test [1] (basolateral compartment of Transwell, 8 hr) is recorded as “increased accumulation”. Besides, in test [1] (exposure up to 18 hr), the Hsc73 expression entry is listed as “not altered”. Besides, the “increase in occludin immunoreactivity compared to control” value in test [1] (non-injured cells, after 2 hr) was 65%. Besides, the “increase in ZO-1 immunoreactivity compared to control” value in test [1] (non-injured cells, at 8 hr) worked out at 65%. The “occludin immunoreactivity versus vehicle-treated control cells” value in test [1] (peptide 8 μg/ml, 18 hr, listed as AMP peptide) was “double”. For the same sequence, the “stimulation of [3H]thymidine incorporation into DNA” value in the test with IEC-6 cells (P<0.001) turned out to be 68%. In addition, the “[3H]thymidine incorporation into DNA” value in the test with IEC-6 cells (with peptide, without 16,668±616) is given as 28,036±882.
